{"source": "paper PMC6560211", "about": "“ApoAI-derived peptide increases glucose tolerance and prevents formation of atherosclerosis in mice” (Diabetologia, 2019)", "key": {"[1]": {"test_system": "Akt and AMPK signalling", "test": "Tissue signalling by western blotting", "type": "in vivo, mouse", "conditions": "soleus muscle, heart muscle and adipose depots in lean mice; 12 mg/kg i.p., 2.5 h; n=4", "method": "Soleus, heart and fat samples were collected from male C57BL/6NTac mice (Taconic, Ejby, Denmark) after 12 h fasting at 9 weeks of age. The effect of RG54 on Akt and AMPK signalling in vivo was then measured by western blot using the following antibodies (all sourced from Cell Signaling Technology/Bionordika, Stockholm, Sweden): pAKT (#4060, 1:2000), Akt (#4691, 1:1000), pAMPK (#2535, 1:1000), AMPK (#2603, 1:1000) and GAPDH (#D16H11, 1:1000). All antibodies were diluted in Tris-buffered saline (154 mmol/l NaCl) with Tween-20 containing 1% BSA and were validated by the manufacturer. See ESM Methods for more details.\nIn vitro: glucose uptake measurements\nC2C12 […] myoblasts (ATCC #CRL-1772) were grown in DMEM (ATCC) supplemented with 10% FBS (Sigma) and 1% Penicillin, Streptomycin and Amphotericin B (Invitrogen) and maintained at 37°C and 5% CO2. Differentiation to myotubes was achieved by switching from growth media to 2% FBS DMEM for 7 days. […]\nNo statistical methods were used to predetermine sample sizes, but sample sizes are similar to those reported in the field. […] Group allocation was blinded for all mouse work when possible (such as collection of blood or tissues, sample quantification and analysis, and atherosclerosis scoring). […]\nprotein concentrations were analysed with Bradford protein assay. […]"}, "[2]": {"test": "rHDL formation, particle size by DLS", "conditions": "1:100 protein:lipid molar ratio, extruded 100 nm MLVs, 4 days (96 h), 24°C", "method": "1,2-dimyristoyl-sn-glycero-3-phosphocholine (DMPC; Avanti Polar Lipids, Alabaster, AL, USA) was formed into 100 nm multilamellar vesicles (MLV) via extrusion using the LiposoFast system (Avestin, Ottawa, ON, Canada) as previously described. MLV were incubated with RG54 or ApoA-I at the indicated ratios for 4 days at 24°C to form rHDL. The resulting particle sizes were measured by dynamic light scattering (DLS) using a Zetasizer APS (Malvern Instruments, Uppsala, Sweden).\nThe reduced initial rate may be due to a more complex binding pattern of the larger number of RG54 peptides needed per formed particle: four to five RG54 molecules (54 amino acids each) are needed to make up the size of full-length ApoA-I (243 amino acids). A qualitative assessment of particle formation was therefore next used to evaluate and compare the sizes of formed rHDL. The hydrodynamic diameters of lipid–protein complexes formed after extended incubation (96 h) of RG54 or ApoA-I with extruded 100 nm MLVs were estimated using DLS.\nESM Figure 4. Lipid clearance and peptide-lipid complex formation activity of RG54 compared with full-length ApoA-I. […]"}}, "note": "No end group written: not given here.", "data": [{"substance": "Ac-AEYHAKATEHLSTLSEKAKPALEDLRQGLLPVLESFKVSFLSALEEYTKKLNTQ [RG54]", "values": [{"measurement": "AMPK and Akt phosphorylation", "setting": "[1]", "value": "minor to no changes"}, {"measurement": "lipid-protein complexes formed (DLS frequency plots)", "setting": "[2]", "value": "single peaks corresponding to rHDL particles"}]}]}
